From ChEMBL document CHEMBL3045388, “Sensitivity of Podosphaera aphanis isolates to DMI fungicides: distribution and reduced cross-sensitivity” (Pest Manag Sci, 2010)
Converted amounts (≈) assume the structure as drawn.

Key:
Format in all cases: functional, organism-based
Podosphaera aphanis [1] = assay: Antifungal activity against Podosphaera aphanis isolate SIL in Darselect leaf disks after 8 days; conditions: 192 h
Podosphaera aphanis [2] = assay: Antifungal activity against Podosphaera aphanis isolate CAM in Darselect leaf disks after 8 days; conditions: 192 h
Podosphaera aphanis [3] = assay: Antifungal activity against Podosphaera aphanis isolate LBP in Darselect leaf disks after 8 days; conditions: 192 h
Podosphaera aphanis [4] = assay: Antifungal activity against Podosphaera aphanis isolate BRE in Darselect leaf disks after 8 days; conditions: 192 h
Podosphaera aphanis [5] = assay: Antifungal activity against Podosphaera aphanis isolate DAR1 in Darselect leaf disks after 8 days; conditions: isolate DAR1, 192 h
Podosphaera aphanis [6] = assay: Antifungal activity against Podosphaera aphanis isolate BRA in Darselect leaf disks after 8 days; conditions: 192 h
Podosphaera aphanis [7] = assay: Antifungal activity against Podosphaera aphanis isolate PES in Darselect leaf disks after 8 days; conditions: 192 h
Podosphaera aphanis [8] = assay: Antifungal activity against Podosphaera aphanis isolate GUI in Darselect leaf disks after 8 days; conditions: 192 h
Podosphaera aphanis [9] = assay: Antifungal activity against Podosphaera aphanis isolate VIR in Darselect leaf disks after 8 days; conditions: 192 h
Podosphaera aphanis [10] = assay: Antifungal activity against Podosphaera aphanis isolate SAG in Darselect leaf disks after 8 days; conditions: 192 h
Podosphaera aphanis [11] = assay: Antifungal activity against Podosphaera aphanis isolate DOU in Darselect leaf disks after 8 days; conditions: 192 h
Podosphaera aphanis [12] = assay: Antifungal activity against Podosphaera aphanis isolate LI1 in Darselect leaf disks after 8 days; conditions: isolate LI1, 192 h
Podosphaera aphanis [13] = assay: Antifungal activity against Podosphaera aphanis isolate DAR18 in Darselect leaf disks after 8 days; conditions: isolate DAR18, 192 h
Podosphaera aphanis [14] = assay: Antifungal activity against Podosphaera aphanis isolate ART in Darselect leaf disks after 8 days; conditions: 192 h
Podosphaera aphanis [15] = assay: Antifungal activity against Podosphaera aphanis isolate HOR in Darselect leaf disks after 8 days; conditions: 192 h
Podosphaera aphanis [16] = assay: Antifungal activity against Podosphaera aphanis isolate MAR in Darselect leaf disks after 8 days; conditions: 192 h
Podosphaera aphanis [17] = assay: Antifungal activity against Podosphaera aphanis isolate AVI in Darselect leaf disks after 8 days; conditions: 192 h
Podosphaera aphanis [18] = assay: Antifungal activity against Podosphaera aphanis isolate ABA in Darselect leaf disks after 8 days; conditions: 192 h
Podosphaera aphanis [19] = assay: Antifungal activity against Podosphaera aphanis isolate MEG in Darselect leaf disks after 8 days; conditions: 192 h
Podosphaera aphanis [20] = assay: Antifungal activity against Podosphaera aphanis isolate PAJ in Darselect leaf disks after 8 days; conditions: 192 h
Podosphaera aphanis [21] = assay: Antifungal activity against Podosphaera aphanis isolate SOC in Darselect leaf disks after 8 days; conditions: 192 h
Podosphaera aphanis [22] = assay: Antifungal activity against Podosphaera aphanis isolate SOU in Darselect leaf disks after 8 days; conditions: 192 h
Podosphaera aphanis [23] = assay: Antifungal activity against Podosphaera aphanis isolate MEP in Darselect leaf disks after 8 days; conditions: 192 h
Podosphaera aphanis [24] = assay: Antifungal activity against Podosphaera aphanis isolate SOD in Darselect leaf disks after 8 days; conditions: 192 h

SMILES: CCCC(Cn1cncn1)c1ccc(Cl)cc1Cl (centres undefined) [PENCONAZOLE]
- EC50 (Podosphaera aphanis [1]): 0.4 µg/mL (≈ 1.41 µM)
- MIC (Podosphaera aphanis [1]): 1 µg/mL (≈ 3.52 µM)
- EC50 (Podosphaera aphanis [2]): 0.9 µg/mL (≈ 3.17 µM)
- MIC (Podosphaera aphanis [2]): 2.5 µg/mL (≈ 8.8 µM)
- EC50 (Podosphaera aphanis [3]): 4.2 µg/mL (≈ 14.8 µM)
- MIC (Podosphaera aphanis [3]): 9.5 µg/mL (≈ 33.4 µM)
- EC50 (Podosphaera aphanis [4]): 1.9 µg/mL (≈ 6.69 µM)
- MIC (Podosphaera aphanis [4]): 6 µg/mL (≈ 21.1 µM)
- EC50 (Podosphaera aphanis [5]): 2 µg/mL (≈ 7.04 µM)
- MIC (Podosphaera aphanis [5]): 3 µg/mL (≈ 10.6 µM)
- EC50 (Podosphaera aphanis [6]): 1.48 µg/mL (≈ 5.21 µM)
- MIC (Podosphaera aphanis [6]): 2.6 µg/mL (≈ 9.15 µM)
- EC50 (Podosphaera aphanis [7]): 0.04 µg/mL (≈ 0.141 µM)
- MIC (Podosphaera aphanis [7]): 0.15 µg/mL (≈ 0.528 µM)
- EC50 (Podosphaera aphanis [8]): 0.9 µg/mL (≈ 3.17 µM)
- MIC (Podosphaera aphanis [8]): 2.1 µg/mL (≈ 7.39 µM)
- EC50 (Podosphaera aphanis [9]): 2 µg/mL (≈ 7.04 µM)
- MIC (Podosphaera aphanis [9]): 5 µg/mL (≈ 17.6 µM)
- EC50 (Podosphaera aphanis [10]): 0.28 µg/mL (≈ 0.985 µM)
- MIC (Podosphaera aphanis [10]): 0.5 µg/mL (≈ 1.76 µM)
- EC50 (Podosphaera aphanis [11]): 1.3 µg/mL (≈ 4.57 µM)
- MIC (Podosphaera aphanis [11]): 2 µg/mL (≈ 7.04 µM)
- EC50 (Podosphaera aphanis [12]): 2.45 µg/mL (≈ 8.62 µM)
- MIC (Podosphaera aphanis [12]): 5.15 µg/mL (≈ 18.1 µM)
- EC50 (Podosphaera aphanis [13]): 3.5 µg/mL (≈ 12.3 µM)
- MIC (Podosphaera aphanis [13]): 9 µg/mL (≈ 31.7 µM)
- EC50 (Podosphaera aphanis [14]): 2.2 µg/mL (≈ 7.74 µM)
- MIC (Podosphaera aphanis [14]): 6.6 µg/mL (≈ 23.2 µM)
- EC50 (Podosphaera aphanis [15]): 0.8 µg/mL (≈ 2.82 µM)
- MIC (Podosphaera aphanis [15]): 2 µg/mL (≈ 7.04 µM)
- EC50 (Podosphaera aphanis [16]): 2.55 µg/mL (≈ 8.97 µM)
- MIC (Podosphaera aphanis [16]): 10 µg/mL (≈ 35.2 µM)
- EC50 (Podosphaera aphanis [17]): 0.58 µg/mL (≈ 2.04 µM)
- MIC (Podosphaera aphanis [17]): 1.8 µg/mL (≈ 6.33 µM)
- EC50 (Podosphaera aphanis [18]): 1.25 µg/mL (≈ 4.4 µM)
- MIC (Podosphaera aphanis [18]): 2.85 µg/mL (≈ 10 µM)
- EC50 (Podosphaera aphanis [19]): 0.43 µg/mL (≈ 1.51 µM)
- MIC (Podosphaera aphanis [19]): 1 µg/mL (≈ 3.52 µM)
- EC50 (Podosphaera aphanis [20]): 2.9 µg/mL (≈ 10.2 µM)
- MIC (Podosphaera aphanis [20]): 3.9 µg/mL (≈ 13.7 µM)
- EC50 (Podosphaera aphanis [21]): 3.2 µg/mL (≈ 11.3 µM)
- MIC (Podosphaera aphanis [21]): 7.9 µg/mL (≈ 27.8 µM)
- EC50 (Podosphaera aphanis [22]): 2.1 µg/mL (≈ 7.39 µM)
- MIC (Podosphaera aphanis [22]): 9.8 µg/mL (≈ 34.5 µM)
- EC50 (Podosphaera aphanis [23]): 0.3 µg/mL (≈ 1.06 µM)
- MIC (Podosphaera aphanis [23]): 0.8 µg/mL (≈ 2.82 µM)

SMILES: CCCCC(C#N)(Cn1cncn1)c1ccc(Cl)cc1 (centres undefined) [MYCLOBUTANIL]
- EC50 (Podosphaera aphanis [24]): 13.1 µg/mL (≈ 45.4 µM)
- MIC (Podosphaera aphanis [24]): 21.5 µg/mL (≈ 74.5 µM)
- EC50 (Podosphaera aphanis [1]): 2 µg/mL (≈ 6.93 µM)
- MIC (Podosphaera aphanis [1]): 6.5 µg/mL (≈ 22.5 µM)
- EC50 (Podosphaera aphanis [2]): 2.6 µg/mL (≈ 9 µM)
- MIC (Podosphaera aphanis [2]): 5.5 µg/mL (≈ 19 µM)
- EC50 (Podosphaera aphanis [3]): 4.8 µg/mL (≈ 16.6 µM)
- MIC (Podosphaera aphanis [3]): 12.5 µg/mL (≈ 43.3 µM)
- EC50 (Podosphaera aphanis [4]): 5.3 µg/mL (≈ 18.4 µM)
- MIC (Podosphaera aphanis [4]): 13.7 µg/mL (≈ 47.4 µM)
- EC50 (Podosphaera aphanis [5]): 4.75 µg/mL (≈ 16.4 µM)
- MIC (Podosphaera aphanis [5]): 15 µg/mL (≈ 51.9 µM)
- EC50 (Podosphaera aphanis [6]): 1.3 µg/mL (≈ 4.5 µM)
- MIC (Podosphaera aphanis [6]): 3 µg/mL (≈ 10.4 µM)
- EC50 (Podosphaera aphanis [7]): < 0.1 µg/mL
- MIC (Podosphaera aphanis [7]): < 0.1 µg/mL
- EC50 (Podosphaera aphanis [8]): 1.15 µg/mL (≈ 3.98 µM)
- MIC (Podosphaera aphanis [8]): 2.35 µg/mL (≈ 8.14 µM)
- EC50 (Podosphaera aphanis [9]): 1.8 µg/mL (≈ 6.23 µM)
- MIC (Podosphaera aphanis [9]): 5 µg/mL (≈ 17.3 µM)
- EC50 (Podosphaera aphanis [10]): 1.7 µg/mL (≈ 5.89 µM)
- MIC (Podosphaera aphanis [10]): 5.33 µg/mL (≈ 18.5 µM)
- EC50 (Podosphaera aphanis [11]): 8.9 µg/mL (≈ 30.8 µM)
- MIC (Podosphaera aphanis [11]): 15.5 µg/mL (≈ 53.7 µM)
- EC50 (Podosphaera aphanis [12]): 3.6 µg/mL (≈ 12.5 µM)
- MIC (Podosphaera aphanis [12]): 8.5 µg/mL (≈ 29.4 µM)
- EC50 (Podosphaera aphanis [13]): 14.7 µg/mL (≈ 50.8 µM)
- MIC (Podosphaera aphanis [13]): 31 µg/mL (≈ 107 µM)
- EC50 (Podosphaera aphanis [14]): 3.9 µg/mL (≈ 13.5 µM)
- MIC (Podosphaera aphanis [14]): 10.7 µg/mL (≈ 37.1 µM)
- EC50 (Podosphaera aphanis [15]): 4.25 µg/mL (≈ 14.7 µM)
- MIC (Podosphaera aphanis [15]): 10.8 µg/mL (≈ 37.2 µM)
- EC50 (Podosphaera aphanis [16]): 5.5 µg/mL (≈ 19 µM)
- MIC (Podosphaera aphanis [16]): 16 µg/mL (≈ 55.4 µM)
- EC50 (Podosphaera aphanis [17]): 0.5 µg/mL (≈ 1.73 µM)
- MIC (Podosphaera aphanis [17]): 2 µg/mL (≈ 6.93 µM)
- EC50 (Podosphaera aphanis [18]): 3.75 µg/mL (≈ 13 µM)
- MIC (Podosphaera aphanis [18]): 9 µg/mL (≈ 31.2 µM)
- EC50 (Podosphaera aphanis [19]): 1 µg/mL (≈ 3.46 µM)
- MIC (Podosphaera aphanis [19]): 2.35 µg/mL (≈ 8.14 µM)
- EC50 (Podosphaera aphanis [20]): 3 µg/mL (≈ 10.4 µM)
- MIC (Podosphaera aphanis [20]): 6.9 µg/mL (≈ 23.9 µM)
- EC50 (Podosphaera aphanis [21]): 6.45 µg/mL (≈ 22.3 µM)
- MIC (Podosphaera aphanis [21]): 26 µg/mL (≈ 90 µM)
- EC50 (Podosphaera aphanis [22]): 10 µg/mL (≈ 34.6 µM)
- MIC (Podosphaera aphanis [22]): 23 µg/mL (≈ 79.6 µM)
- EC50 (Podosphaera aphanis [23]): 0.8 µg/mL (≈ 2.77 µM)
- MIC (Podosphaera aphanis [23]): 3 µg/mL (≈ 10.4 µM)
